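Interpolation was linear, between the two tested concentrations surrounding the appropriate level; five concentrations were tested over 48 hours in 96-well plates. GI50 is the concentration that inhibits growth by half.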 Activity calls are given as the source filed them. Rule as the data show it: active = GI50 up to about 1.1 µM and inactive = higher.

Test in all cases: NCI tumour cell line growth inhibition, 48 h
Experiment [1] concerns CCRF-CEM.
Experiment [2] deals with MDA-N.
Experiment [3] deals with TK-10.
Experiment [4] has as its system SK-MEL-28.
For experiment [5], the system named is SK-MEL-5.
Experiment [6] concerns A549.
Experiment [7] deals with SNB-75.
The test system of experiment [8] is 786-0.
The subject of experiment [9] is Hs-578T.
Experiment [10] deals with SF-295.
Experiment [11] relates to MCF7.
The test system of experiment [12] is SK-OV-3.
The test system of experiment [13] is RXF 393.
Experiment [14] concerns A498.
Experiment [15] deals with SW-620.
Experiment [16] deals with NCI-H460.
In experiment [17] the test system is UO-31.
For experiment [18], the system named is MDA-MB-231.
Experiment [19] relates to DU-145.
Experiment [20] concerns NCI-H23.

As for `COc1ccc2nc(NCN3C(=O)c4ccccc4C3=O)sc2c1`, the GI50 in [1], in experiment [2], in experiment [3], in experiment [4], in experiment [5] and in [6] was > 100 µM (inactive) each time. The GI50 in experiment [7], in experiment [8], in [9], in experiment [10], in [11] and in [12] was > 100 µM (inactive) each time. Moreover, the GI50 in experiment [13], in experiment [14], in experiment [15], in [16], in experiment [17] and in [18] was > 100 µM (inactive) throughout. In addition, the GI50 in experiment [19] and in experiment [20] was > 100 µM (inactive) each time.
In the case of `O=C(O)C(Cc1ccc(O)c([N+](=O)[O-])c1)N1C(=O)c2ccccc2C1=O` (stereo not given), the GI50 in experiment [1], in [2], in experiment [3], in experiment [4], in [5] and in experiment [6] was > 100 µM (inactive) throughout. Besides, the GI50 in [7], in experiment [8], in experiment [9], in experiment [10], in [11] and in experiment [12] was > 100 µM (inactive) in each case. For the same molecule, the GI50 in experiment [13], in experiment [14], in experiment [15], in experiment [16], in experiment [17] and in experiment [18] was > 100 µM (inactive) each time. Also, the GI50 in [19] and in [20] was > 100 µM (inactive) each time.
`C/C1=C/C(C)CC(C)OC(=O)C(C)NC(=O)C(Cc2ccc(O)c(I)c2)N(C)C(=O)CNC(=O)C(C)C1` (stereo not given): the GI50 in [1] is < 0.01 µM (active); in [2], < 0.01 µM (active); in experiment [3], < 0.01 µM (active); in experiment [4] it was 0.105 µM (active); in experiment [5] it was < 0.01 µM (active); in experiment [6], < 0.01 µM (active). The GI50 in [7] is < 0.01 µM (active); in experiment [8] it was < 0.01 µM (active); in experiment [9], < 0.0109 µM (active); in [10], 0.0101 µM (active); in experiment [11], 0.125 µM (active); in [12], < 0.01 µM (active). For the same molecule, the GI50 is < 0.01 µM (active) in experiment [13]; < 0.01 µM (active) in experiment [14]; < 0.01 µM (active) in experiment [15]; < 0.01 µM (active) in experiment [16]; < 0.0109 µM (active) in experiment [17]; < 0.01 µM (active) in experiment [18]. The results for the GI50 in [19] and in [20] were 0.0643 µM (active) and 0.409 µM (active), respectively.
Turning to `COC(=O)C1Cc2cccc(C)c2C1` (stereo not given), the GI50 in experiment [1] was 66.5 µM (inactive); in experiment [2] it was > 100 µM (inactive); in experiment [3], > 100 µM (inactive); in [4] it was > 100 µM (inactive); in [5] it was > 100 µM (inactive); in experiment [6], > 100 µM (inactive). For the same molecule, the GI50 in [7] was > 100 µM (inactive); in experiment [8], > 100 µM (inactive); in [9] it was > 100 µM (inactive); in experiment [10], > 100 µM (inactive); in experiment [11], 19.1 µM (inactive); in experiment [12], > 100 µM (inactive). Further, the GI50 in [13], in experiment [14], in experiment [15], in [16], in experiment [17] and in experiment [18] was > 100 µM (inactive) each time. Moreover, the GI50 in [19] and in experiment [20] was > 100 µM (inactive) throughout.
`O=C(N/N=C/c1ccc([N+](=O)[O-])cc1)Nc1ccc(C(=O)O)cc1`: the GI50 in experiment [1] was 30.6 µM (inactive); in experiment [2] it was 30.5 µM (inactive); in [3], 34.4 µM (inactive); in experiment [4], 41.7 µM (inactive); in experiment [5] it was 16.3 µM (inactive); in [6], 35.3 µM (inactive). The GI50 in experiment [7] is 46.3 µM (inactive); in experiment [8], 39.1 µM (inactive); in experiment [9], 45.4 µM (inactive); in [10], 17.4 µM (inactive); in experiment [11] it was 27.4 µM (inactive); in [12], 21.3 µM (inactive). In addition, the GI50 in [13] is 26.1 µM (inactive); in experiment [14], 20.2 µM (inactive); in experiment [15], 40.9 µM (inactive); in [16], 26.5 µM (inactive); in [17], 22.1 µM (inactive); in experiment [18] it was 28.6 µM (inactive). Also, the values for the GI50 in experiment [19] and in experiment [20] were 29.9 µM (inactive) and 23.2 µM (inactive), respectively.
As for `CCOC(=O)c1c2ccccc2n2c(=O)n(C)nnc12`, the GI50 in experiment [1] was > 100 µM (inactive); in experiment [2] it was > 100 µM (inactive); in [3], > 75.5 µM (inactive); in experiment [4] it was > 100 µM (inactive); in experiment [5] it was > 100 µM (inactive); in [6], > 100 µM (inactive). In addition, the GI50 is 46.3 µM (inactive) in [7]; 89.3 µM (inactive) in experiment [8]; > 100 µM (inactive) in experiment [9]; 40.1 µM (inactive) in [10]; > 100 µM (inactive) in [11]; > 80.5 µM (inactive) in experiment [12]. In addition, the GI50 in [13] is > 47.4 µM (inactive); in experiment [14], > 100 µM (inactive); in experiment [15] it was > 100 µM (inactive); in [16], > 100 µM (inactive); in experiment [17], > 100 µM (inactive); in experiment [18], > 100 µM (inactive). Also, the GI50 in experiment [19] and in experiment [20] was > 100 µM (inactive) throughout.
Regarding `O=C(NNC(=O)c1ccccc1O)c1ccccc1O`, the GI50 in experiment [1] was 0.0173 µM (active); in experiment [2], 0.0247 µM (active); in experiment [3], 5.97 µM (inactive); in [4], 22.4 µM (inactive); in experiment [5], 0.607 µM (active); in experiment [6], 0.0361 µM (active). Besides, the GI50 in [7] was 0.0565 µM (active); in [8], 0.141 µM (active); in experiment [9], 0.0149 µM (active); in experiment [10], 0.189 µM (active); in experiment [11], 0.43 µM (active); in experiment [12], 0.341 µM (active). The GI50 in experiment [13] is 0.0514 µM (active); in experiment [14], 19.8 µM (inactive); in [15] it was 0.108 µM (active); in experiment [16], 0.15 µM (active); in [17], 0.022 µM (active); in [18], 5.24 µM (inactive). For the same molecule, the results for the GI50 in experiment [19] and in experiment [20] were 0.0445 µM (active) and 0.105 µM (active), respectively.

The values above are taken from ChEMBL document CHEMBL1201862, “PubChem BioAssay data set” (2004).
